Laboratory results: article PMC9427784, “Structural bases for aspartate recognition and polymerization efficiency of cyanobacterial cyanophycin synthetase” (Nature Communications, 2022)
One block for each molecule: values may come before it.

Experiments:
TeCphA1 [1] = target: T1, TeCphA1 (Trichodesmium erythraeum, UniProt Q113V7); assay: phosphate release, molybdenum blue colorimetry; Michaelis-Menten fit; type: biochemical; conditions: one substrate varied; L-aspartate 5 mM, L-arginine 0.5 mM, (β-Asp-Arg)4 2 mM; 20 mM MgCl2, pH 8.2, 30°C; two ATP sites (G and M domains)
T1 construct: gene Tery_1965; full-length, C-terminal His6 tag (pET-22b(+), NdeI/XhoI), E. coli BL21(DE3); D2 homotetramer; N (1-161), G (162-487), M (488-876) domains

TeCphA1 [2] = target: T1, TeCphA1; assay: cryo-EM structure, […] Å; type: binding; conditions: 4 mM ATPγS, 20 mM MgCl2, pH 8.2; G and M domain sites; also in substrate-bound 7WAE (C1) and 7WAF (C2)
TeCphA1 [3] = target: T1, TeCphA1; assay: cryo-EM structure, […] Å (C1); type: binding; conditions: complex with ATPγS, (β-Asp-Arg)4, Mg2+; 100 mM L-aspartate, pH 8.2; G domain site, seen in chain D
[4] = target: cyanophycin synthetase (CphA1) from Trichodesmium erythraeum IMS101 (Trichodesmium erythraeum IMS101); assay: cryo-EM structure; single-particle cryo-EM of TeCphA1 in the apo, ATPγS-bound and substrate-bound states; 2-12 μM TeCphA1, Tris-HCl pH 8.0-8.2
purified protein = substrate: N[C@@H](CC(=O)O)C(=O)O; assay: purified protein; conditions: one substrate varied, other substrates at ATP 4 mM, L-arginine 0.5 mM, (β-Asp-Arg)4 2 mM, 20 mM MgCl2, 20 mM KCl, pH 8.2, 30°C, positively cooperative, Hill fit

Molecule: Nc1ncnc2c1ncn2[C@@H]1O[C@H](COP(=O)(O)OP(=O)(O)OP(=O)(O)O)[C@@H](O)[C@H]1O [ATP]
- apparent Km (TeCphA1 [1]): we have determined the apparent Km value for ATP

Molecule: Nc1ncnc2c1ncn2[C@@H]1O[C@H](COP(=O)(O)OP(=O)(O)OP(O)(O)=S)[C@@H](O)[C@H]1O [ATPγS]
- cryo-EM structure, 2.96 Å (TeCphA1 [2]): 7WAD for TeCphA1 bound with ATPγS

Molecule: N[C@@H](CC(=O)O)C(=O)O [L-aspartate]
- cryo-EM structure, 2.64 Å (C1) (TeCphA1 [3]): the substrate aspartate was observed only in one protomer (chain D)

- stoichiometry N [4]: 4
Molecule: cyanophycin synthetase (CphA1) from Trichodesmium erythraeum IMS101 (enzyme)

B1: TeCphA1 (Trichodesmium erythraeum IMS101) (protein)
chain: MKILKLQTLRGPNYWSIHRHKLVVMRLDLEDLYEKYTSDIPGFYKGLTEVLPSLVEHLCSPGVKGGFLTRVEKGTLIGHVIEHVAIELQELAGMPVGFGRTRETSTTGVFQVVIEYENEQAGRYAARAAVRLCQSIVDTGTYPATELQQDLEDLKELKNQASLGPSTEAIVKEAEARGIPWTQLGARFMIQFGYGVNQKKIQATLSNQTGILGVELACDKEGTKRILKDAGVPVPRGTVARYFDELQDAIEYVGGYPIVIKPLDGNHGRGITIDVKNWQEAEEAYDLARKASKTKTVIVERYYTGKDHRVLVVNGKVVAVAERVPAHVVGNGKSTIAELIEETNRDPQRGDGHDNILTRITVDKSALDILGKQGYSIDSIPLKGKKCFLRATANLSTGGIAVDRTDEIHPENVWLLSRVAKIIGLDIAGIDVVTEDISQPLREVEGVIVEVNAAPGFRMHVAPSRGLARNVAGAVMDMLFPGSKNGRIPILSVTGTNGKTTTTRLLAHIIKQTGKVVGYTTTDGTYIGEYLAETGDNTGPQSAHLILSDPTVEVAVLETARGGILRSGLGFSSCEVGIVLNVTADHLGIGDIDTIEQLAKLKSVVAESVMPKGYAVLNAEDPLVAAMADRVKGQVAYFSMDPNNELLLRHTEAGGLAAIYENGYISILKGDWTLRIEKAVNVPITMAGKAPFMIANALAACLAVFTQGVKIEHIRKGLSTFVASVDQTPGRMNMFNMGSYHALVDYAHNPASYEALGGFVRNWPGKRIGVVGGPGDRRDEDFVSLGELAADIFDEIIIKEDDDTRGRPRGNAAELICQGVKQFLNGIKNSESKATYESILDETAAINTALDRAPIDGLVVILPESVNRAISLIEGRHVIQDIELLQDSQREPKDQEVLKSSI
- K0.5 (purified protein): 18.0 ± 1.1 mM
